Experiment [1] concerns the target Activin receptor type-1-like (Homo sapiens) (UniProt P37023). The experiment is described as follows: Selectivity interaction (Ambit KINOMEscan and KiNATiv profiling in Jurkat cells) EUB0000090b ACVRL1. The class given is cell-based. As to conditions: at 1 µM.
The target in experiment [2] is Macrophage-stimulating protein receptor (Homo sapiens, UniProt Q04912). The experiment is described as follows: Selectivity interaction (Ambit KINOMEscan and KiNATiv profiling in Jurkat cells) EUB0000090b MST1R. The class given is cell-based. As to conditions: at 1 µM.
Experiment [3] addresses Dual specificity tyrosine-phosphorylation-regulated kinase 1A (Homo sapiens, UniProt Q13627). The experiment is described as follows: Selectivity interaction (SelectScreen profiling (Invitrogen)) EUB0000607a DYRK1A. As to conditions: at 2 µM.
For experiment [4], the target named is T1, Protein kinase C iota type (Homo sapiens) (UniProt P41743).
T1 sequence (whole entry): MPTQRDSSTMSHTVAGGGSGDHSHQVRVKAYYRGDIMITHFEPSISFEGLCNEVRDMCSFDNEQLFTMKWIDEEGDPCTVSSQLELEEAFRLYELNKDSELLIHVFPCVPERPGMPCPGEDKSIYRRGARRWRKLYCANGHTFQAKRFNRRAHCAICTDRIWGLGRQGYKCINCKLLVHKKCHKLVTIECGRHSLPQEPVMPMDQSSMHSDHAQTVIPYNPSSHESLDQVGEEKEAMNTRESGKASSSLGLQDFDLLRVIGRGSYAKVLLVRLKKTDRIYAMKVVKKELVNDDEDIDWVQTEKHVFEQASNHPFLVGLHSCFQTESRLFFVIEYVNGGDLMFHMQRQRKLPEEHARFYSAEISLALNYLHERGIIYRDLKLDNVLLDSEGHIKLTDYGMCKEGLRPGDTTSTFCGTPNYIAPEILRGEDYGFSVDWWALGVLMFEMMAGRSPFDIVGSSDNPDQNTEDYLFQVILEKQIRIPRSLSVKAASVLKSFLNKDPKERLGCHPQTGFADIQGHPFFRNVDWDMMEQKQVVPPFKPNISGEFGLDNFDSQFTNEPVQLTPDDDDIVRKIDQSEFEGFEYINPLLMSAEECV
As to conditions: at 10 µM.

For experiment [5], the target named is Ribosomal protein S6 kinase alpha-5 (Homo sapiens) (UniProt O75582). The experiment is described as follows: Selectivity interaction (KinomeScan (DiscoverX)) EUB0000655a RPS6KA5. As to conditions: at 10 µM.
Experiment [6] has as its target T1, Protein kinase C iota type (Homo sapiens). The experiment is described as follows: Selectivity interaction (ActivX KiNativ screen (kinase selectivity in THP-1 cell lysates)) EUB0000639a PRKCI. As to conditions: lysate, at 0.01 µM. The class given is subcellular.
The target in experiment [7] is T2, NUAK family SNF1-like kinase 1 (Homo sapiens) (UniProt O60285).
T2 sequence (whole entry): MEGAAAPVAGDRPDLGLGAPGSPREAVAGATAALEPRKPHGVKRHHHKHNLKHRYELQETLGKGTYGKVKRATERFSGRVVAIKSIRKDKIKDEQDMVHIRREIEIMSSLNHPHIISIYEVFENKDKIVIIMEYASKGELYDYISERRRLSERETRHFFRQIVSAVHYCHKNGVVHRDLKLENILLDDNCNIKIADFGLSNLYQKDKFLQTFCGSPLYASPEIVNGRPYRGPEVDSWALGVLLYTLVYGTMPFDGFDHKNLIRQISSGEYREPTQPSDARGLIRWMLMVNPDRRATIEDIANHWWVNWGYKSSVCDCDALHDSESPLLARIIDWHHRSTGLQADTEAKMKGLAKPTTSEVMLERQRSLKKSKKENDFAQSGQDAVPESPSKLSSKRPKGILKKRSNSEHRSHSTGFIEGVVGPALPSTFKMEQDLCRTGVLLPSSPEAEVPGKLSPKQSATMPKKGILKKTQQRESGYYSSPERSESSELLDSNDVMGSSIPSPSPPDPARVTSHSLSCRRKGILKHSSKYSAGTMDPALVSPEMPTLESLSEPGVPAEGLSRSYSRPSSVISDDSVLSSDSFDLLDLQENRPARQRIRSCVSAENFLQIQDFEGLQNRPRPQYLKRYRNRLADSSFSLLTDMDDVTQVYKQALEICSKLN
As to conditions: at 10 µM.

Experiment [8] concerns the target Ribosomal protein S6 kinase alpha-1 (Homo sapiens, UniProt Q15418). As to conditions: at 10 µM.
The target in experiment [9] is Protein kinase C eta type (Homo sapiens) (UniProt P24723). The experiment is described as follows: Selectivity interaction (KinomeScan (DiscoverX)) EUB0000092b PRKCH. As to conditions: at 10 µM.
Experiment [10] concerns the target T3, Dual serine/threonine and tyrosine protein kinase (Homo sapiens) (UniProt Q6XUX3).
T3 sequence (whole entry): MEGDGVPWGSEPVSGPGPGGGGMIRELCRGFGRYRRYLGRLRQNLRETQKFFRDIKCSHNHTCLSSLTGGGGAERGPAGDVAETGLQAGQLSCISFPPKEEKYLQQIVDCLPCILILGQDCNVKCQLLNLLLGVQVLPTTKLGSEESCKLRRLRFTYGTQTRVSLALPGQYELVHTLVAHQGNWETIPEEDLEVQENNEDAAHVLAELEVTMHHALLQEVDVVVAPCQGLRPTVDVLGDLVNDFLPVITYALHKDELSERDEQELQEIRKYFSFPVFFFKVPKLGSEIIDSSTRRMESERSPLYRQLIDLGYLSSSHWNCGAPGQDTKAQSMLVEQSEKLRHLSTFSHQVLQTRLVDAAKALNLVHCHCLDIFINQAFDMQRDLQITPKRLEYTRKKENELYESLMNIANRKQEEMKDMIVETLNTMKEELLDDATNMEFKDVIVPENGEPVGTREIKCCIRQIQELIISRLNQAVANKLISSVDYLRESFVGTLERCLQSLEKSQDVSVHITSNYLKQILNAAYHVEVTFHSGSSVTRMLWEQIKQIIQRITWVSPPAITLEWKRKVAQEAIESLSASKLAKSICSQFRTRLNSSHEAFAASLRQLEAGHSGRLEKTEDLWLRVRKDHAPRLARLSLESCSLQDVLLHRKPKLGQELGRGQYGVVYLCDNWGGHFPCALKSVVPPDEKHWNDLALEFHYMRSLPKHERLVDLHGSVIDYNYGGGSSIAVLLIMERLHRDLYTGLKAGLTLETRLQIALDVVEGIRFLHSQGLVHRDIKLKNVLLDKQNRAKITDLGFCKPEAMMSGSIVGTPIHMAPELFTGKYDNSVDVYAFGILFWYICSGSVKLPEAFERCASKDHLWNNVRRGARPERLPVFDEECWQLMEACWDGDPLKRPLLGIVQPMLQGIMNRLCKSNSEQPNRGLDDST
The experiment is described as follows: Selectivity interaction (KinomeScan (DiscoverX)) EUB0001550a DSTYK. As to conditions: at 1 µM.

Experiment [11] relates to Leucine-rich repeat serine/threonine-protein kinase 2 (Homo sapiens), Q5S007 [G2019S]. The experiment is described as follows: (§1) Selectivity interaction (KinomeScan (DiscoverX)) EUB0000045b LRRK2.
Leucine-rich repeat serine/threonine-protein kinase 2 (Homo sapiens), Q5S007 [G2019S], sequence (Q5S007 whole entry G2019S): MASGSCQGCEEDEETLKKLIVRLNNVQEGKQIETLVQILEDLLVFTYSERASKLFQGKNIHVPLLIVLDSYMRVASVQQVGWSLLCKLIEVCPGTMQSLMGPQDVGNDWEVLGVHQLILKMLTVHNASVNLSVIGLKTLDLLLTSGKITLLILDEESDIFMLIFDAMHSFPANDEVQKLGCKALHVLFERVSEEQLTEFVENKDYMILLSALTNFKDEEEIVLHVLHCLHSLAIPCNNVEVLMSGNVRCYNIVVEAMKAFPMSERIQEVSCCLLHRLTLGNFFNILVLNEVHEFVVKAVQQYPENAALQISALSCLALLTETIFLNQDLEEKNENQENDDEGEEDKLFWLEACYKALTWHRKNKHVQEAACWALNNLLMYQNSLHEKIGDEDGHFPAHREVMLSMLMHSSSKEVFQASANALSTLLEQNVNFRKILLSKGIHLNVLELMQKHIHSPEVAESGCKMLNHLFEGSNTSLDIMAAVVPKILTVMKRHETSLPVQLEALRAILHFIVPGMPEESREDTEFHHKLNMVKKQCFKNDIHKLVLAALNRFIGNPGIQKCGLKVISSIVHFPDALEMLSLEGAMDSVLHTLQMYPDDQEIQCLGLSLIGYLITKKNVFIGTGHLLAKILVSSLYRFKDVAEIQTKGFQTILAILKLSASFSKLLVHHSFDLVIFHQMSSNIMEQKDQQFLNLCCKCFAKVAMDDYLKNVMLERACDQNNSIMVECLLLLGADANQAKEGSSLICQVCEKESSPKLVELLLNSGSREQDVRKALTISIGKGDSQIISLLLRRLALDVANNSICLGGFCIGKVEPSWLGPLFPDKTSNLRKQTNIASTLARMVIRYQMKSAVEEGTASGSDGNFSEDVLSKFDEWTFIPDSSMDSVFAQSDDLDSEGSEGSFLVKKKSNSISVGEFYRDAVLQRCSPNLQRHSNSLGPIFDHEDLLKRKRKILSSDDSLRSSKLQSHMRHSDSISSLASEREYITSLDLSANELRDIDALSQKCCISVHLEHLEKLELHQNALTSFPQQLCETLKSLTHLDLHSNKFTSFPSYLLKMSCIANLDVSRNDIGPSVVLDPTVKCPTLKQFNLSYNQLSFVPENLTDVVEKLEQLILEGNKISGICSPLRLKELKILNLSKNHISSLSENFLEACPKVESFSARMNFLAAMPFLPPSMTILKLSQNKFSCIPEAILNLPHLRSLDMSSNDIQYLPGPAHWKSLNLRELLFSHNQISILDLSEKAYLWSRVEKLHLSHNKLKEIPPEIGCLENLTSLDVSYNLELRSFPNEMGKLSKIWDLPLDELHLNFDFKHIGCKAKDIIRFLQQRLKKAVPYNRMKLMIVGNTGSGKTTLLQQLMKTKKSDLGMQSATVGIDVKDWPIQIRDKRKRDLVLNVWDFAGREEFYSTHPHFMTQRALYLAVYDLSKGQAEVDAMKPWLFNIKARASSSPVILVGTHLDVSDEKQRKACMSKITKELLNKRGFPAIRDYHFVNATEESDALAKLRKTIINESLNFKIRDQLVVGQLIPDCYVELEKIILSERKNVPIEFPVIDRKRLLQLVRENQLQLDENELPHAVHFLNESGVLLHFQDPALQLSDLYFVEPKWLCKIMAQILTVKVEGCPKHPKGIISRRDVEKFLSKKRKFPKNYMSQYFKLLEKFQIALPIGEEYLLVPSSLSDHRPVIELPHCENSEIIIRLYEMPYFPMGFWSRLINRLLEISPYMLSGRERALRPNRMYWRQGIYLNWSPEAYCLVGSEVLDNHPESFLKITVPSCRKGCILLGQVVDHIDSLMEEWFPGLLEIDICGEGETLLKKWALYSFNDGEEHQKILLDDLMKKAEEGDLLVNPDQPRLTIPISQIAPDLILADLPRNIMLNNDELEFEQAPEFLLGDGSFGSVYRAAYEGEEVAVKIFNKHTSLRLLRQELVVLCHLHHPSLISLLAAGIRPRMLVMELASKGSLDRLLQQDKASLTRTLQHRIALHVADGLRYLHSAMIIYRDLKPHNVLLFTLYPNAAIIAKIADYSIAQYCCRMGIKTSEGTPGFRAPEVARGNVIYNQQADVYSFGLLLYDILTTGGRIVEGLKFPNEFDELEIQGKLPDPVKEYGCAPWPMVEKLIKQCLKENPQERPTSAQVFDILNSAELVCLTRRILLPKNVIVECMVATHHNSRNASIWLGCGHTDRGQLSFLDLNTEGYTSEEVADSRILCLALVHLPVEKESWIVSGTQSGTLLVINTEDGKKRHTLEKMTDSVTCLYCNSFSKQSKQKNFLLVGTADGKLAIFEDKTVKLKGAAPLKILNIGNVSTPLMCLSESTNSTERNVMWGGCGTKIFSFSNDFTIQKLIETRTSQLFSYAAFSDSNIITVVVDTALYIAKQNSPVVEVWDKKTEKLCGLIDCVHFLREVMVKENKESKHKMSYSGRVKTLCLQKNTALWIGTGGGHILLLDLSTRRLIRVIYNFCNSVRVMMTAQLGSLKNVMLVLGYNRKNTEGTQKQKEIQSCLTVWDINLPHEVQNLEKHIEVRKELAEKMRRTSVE
Experiment [12] deals with Leucine-rich repeat serine/threonine-protein kinase 2 (Homo sapiens, UniProt Q5S007). The description is as §1.
Leucine-rich repeat serine/threonine-protein kinase 2, sequence (Q5S007 whole entry): as the sequence (Q5S007 whole entry G2019S) above, with S2019G counted along it
The target in experiment [13] is Citron Rho-interacting kinase (Homo sapiens) (UniProt O14578). The experiment is described as follows: Selectivity interaction (KinomeScan (DiscoverX)) EUB0000618a CIT. As to conditions: at 10 µM.
Citron Rho-interacting kinase (Homo sapiens), sequence (O14578 whole entry): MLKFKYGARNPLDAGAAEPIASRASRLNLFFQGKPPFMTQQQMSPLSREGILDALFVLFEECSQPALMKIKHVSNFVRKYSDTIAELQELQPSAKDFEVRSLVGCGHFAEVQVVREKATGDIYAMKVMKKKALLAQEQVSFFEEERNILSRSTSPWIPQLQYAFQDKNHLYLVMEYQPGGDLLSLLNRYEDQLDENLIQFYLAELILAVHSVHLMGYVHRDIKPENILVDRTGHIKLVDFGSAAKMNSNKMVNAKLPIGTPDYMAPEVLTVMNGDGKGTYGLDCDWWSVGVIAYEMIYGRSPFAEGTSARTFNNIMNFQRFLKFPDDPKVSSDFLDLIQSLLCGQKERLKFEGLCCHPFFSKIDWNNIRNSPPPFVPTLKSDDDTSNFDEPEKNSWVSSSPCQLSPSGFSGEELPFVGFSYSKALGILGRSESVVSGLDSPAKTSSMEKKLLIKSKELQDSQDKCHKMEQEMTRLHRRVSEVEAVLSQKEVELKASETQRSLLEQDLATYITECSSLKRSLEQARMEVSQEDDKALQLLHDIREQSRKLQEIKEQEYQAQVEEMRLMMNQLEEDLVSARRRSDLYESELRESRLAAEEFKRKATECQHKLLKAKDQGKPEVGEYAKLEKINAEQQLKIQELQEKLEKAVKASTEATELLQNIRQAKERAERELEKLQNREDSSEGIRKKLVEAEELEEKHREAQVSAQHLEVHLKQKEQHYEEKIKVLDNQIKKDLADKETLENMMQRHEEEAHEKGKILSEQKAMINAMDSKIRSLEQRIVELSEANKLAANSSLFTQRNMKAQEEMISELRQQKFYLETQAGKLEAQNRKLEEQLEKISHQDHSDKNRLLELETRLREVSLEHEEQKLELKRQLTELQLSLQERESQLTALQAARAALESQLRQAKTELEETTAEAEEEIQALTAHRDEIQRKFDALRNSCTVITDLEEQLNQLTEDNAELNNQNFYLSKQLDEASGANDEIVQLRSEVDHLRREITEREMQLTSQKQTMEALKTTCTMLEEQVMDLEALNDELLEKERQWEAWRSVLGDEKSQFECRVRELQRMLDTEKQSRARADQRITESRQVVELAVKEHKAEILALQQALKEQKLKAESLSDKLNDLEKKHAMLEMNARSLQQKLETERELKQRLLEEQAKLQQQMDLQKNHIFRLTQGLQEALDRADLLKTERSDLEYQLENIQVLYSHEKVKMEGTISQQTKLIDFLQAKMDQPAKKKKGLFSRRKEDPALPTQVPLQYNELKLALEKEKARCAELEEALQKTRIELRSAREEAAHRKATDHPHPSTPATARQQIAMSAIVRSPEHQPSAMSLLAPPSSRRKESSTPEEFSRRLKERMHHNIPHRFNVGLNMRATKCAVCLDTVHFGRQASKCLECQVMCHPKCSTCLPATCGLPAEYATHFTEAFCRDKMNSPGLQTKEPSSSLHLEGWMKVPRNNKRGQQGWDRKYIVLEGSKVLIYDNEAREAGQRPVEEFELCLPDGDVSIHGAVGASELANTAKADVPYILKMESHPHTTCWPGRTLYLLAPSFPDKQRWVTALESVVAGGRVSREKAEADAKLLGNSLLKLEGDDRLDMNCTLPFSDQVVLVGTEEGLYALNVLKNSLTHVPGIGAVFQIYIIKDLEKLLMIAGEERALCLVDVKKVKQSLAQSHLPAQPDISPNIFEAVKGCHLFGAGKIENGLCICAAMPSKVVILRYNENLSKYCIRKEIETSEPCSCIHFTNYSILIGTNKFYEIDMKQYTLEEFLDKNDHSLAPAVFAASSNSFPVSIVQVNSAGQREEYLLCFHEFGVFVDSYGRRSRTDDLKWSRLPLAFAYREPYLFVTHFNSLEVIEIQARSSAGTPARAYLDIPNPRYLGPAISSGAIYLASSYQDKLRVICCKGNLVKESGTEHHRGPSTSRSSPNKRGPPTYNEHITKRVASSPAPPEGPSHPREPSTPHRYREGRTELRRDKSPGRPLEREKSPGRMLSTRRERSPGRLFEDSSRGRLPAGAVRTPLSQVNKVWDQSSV

The structures appear in SMILES notation.

Activin receptor type-1-like (Homo sapiens), sequence (P37023 whole entry): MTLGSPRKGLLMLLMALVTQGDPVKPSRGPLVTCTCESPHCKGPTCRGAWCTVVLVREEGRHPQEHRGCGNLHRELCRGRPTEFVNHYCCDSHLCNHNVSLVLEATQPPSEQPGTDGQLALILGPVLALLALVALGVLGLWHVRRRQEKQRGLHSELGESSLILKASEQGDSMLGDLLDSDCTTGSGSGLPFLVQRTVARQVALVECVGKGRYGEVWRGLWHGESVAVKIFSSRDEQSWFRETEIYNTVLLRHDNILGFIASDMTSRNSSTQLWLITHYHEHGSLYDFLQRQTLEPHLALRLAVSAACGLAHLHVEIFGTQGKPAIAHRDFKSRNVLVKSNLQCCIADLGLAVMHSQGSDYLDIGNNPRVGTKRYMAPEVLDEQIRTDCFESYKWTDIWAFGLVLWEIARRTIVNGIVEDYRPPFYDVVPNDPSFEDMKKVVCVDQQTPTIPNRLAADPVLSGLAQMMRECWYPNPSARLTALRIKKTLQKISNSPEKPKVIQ

Take `CN(C)C/C=C/C(=O)Nc1ccc(C(=O)N2CCCC(Nc3ncc(Cl)c(-c4c[nH]c5ccccc45)n3)C2)cc1` (stereo not given): the figures for the % of control in [1] and in experiment [2] were 79% and 90%, respectively.

In the case of `CNC(=O)Nc1ccc(-c2nc(N3CC4CCC(C3)O4)c3cnn(C4CCC5(CC4)OCCO5)c3n2)cc1`, the % of inhibition in [3] turned out to be 2%. Take `Cc1cc([C@@H](C)Nc2ccccc2C(=O)O)c2nc(N3CCOCC3)cc(=O)n2c1` [AZD-6482]: in experiment [4], the % of control worked out at 100%. Take `CN(C)CCOc1ccc(-c2nc(-c3ccncc3)c(-c3ccc4c(c3)CC/C4=N\O)[nH]2)cc1`: the % of control in experiment [5] is 90%. As to `CC[C@@H]1[C@H](F)C(=O)N[C@@H]1COc1nccc2cc(C(N)=O)c(OC)cc12` [ZIMLOVISERTIB], the % of inhibition in [6] was -6.4%.

As to `CCN(CC)CCCCNc1ncc2cc(-c3cc(OC)cc(OC)c3)c(NC(=O)NC(C)(C)C)nc2n1`, the % of control in experiment [7] and in experiment [8] was 100% in each case. For the compound `CCC(=O)N1CCN(c2ccc(-n3c(=O)ccc4cnc5ccc(-c6cnc7ccccc7c6)cc5c43)cc2C(F)(F)F)CC1`, the % of control in [9] was 92%. As for `CN(C)CC#Cc1ccc2[nH]c3c(c2c1)-c1nc(N)ncc1CCC3`, in [10], the % of control is 5.2%. Turning to `C=CC(=O)Nc1cc(-n2c(=O)ccc3cnc4ccc(-c5ccc(NS(C)(=O)=O)cc5)cc4c32)ccc1C`, the % of control worked out at 100% in experiment [11] (at 1 µM), 62% in experiment [11] (at 10 µM), 100% in [12] (at 1 µM) and 100% in experiment [12] (at 10 µM).

For `O[C@H]1CC[C@H](Nc2ncc3nc(Nc4c(F)cc(F)cc4F)n([C@H]4CCOC4)c3n2)CC1`, the % of control in [13] was 96%.

The values above are taken from ChEMBL document CHEMBL5465560, “Selectivity Literature for EUbOPEN Chemogenomic Library” (2024).
